Measurements taken from publication PMC7560342, “In Vitro and In Vivo Evaluation of the Toxic Effects of Dodecylguanidine Hydrochloride” (Toxics, 2020).
Entries after “also recorded” stand apart in the source; their conditions may differ.

Columns and labels:
Sprague-Dawley rats = experiment: Acute inhalation study (4 h aerosol exposure); format: in vivo, rat
Method: Specific-pathogen-free (SPF) male and female Sprague-Dawley (six-week-old) rats were purchased from Orient Bio Inc. (Sungnam, Korea). The temperature and relative humidity of the animal maintenance room was set to 22 ± 3 °C and 30 to 70%, respectively, with a 12:12 h light/dark cycle. Diet (LabDiet 5053, Orient Bio Inc., Sungnam, Korea) and water were supplied ad libitum. Following an acclimatization period of one week, the rats were randomly divided into four groups (five males and five females per group) for the acute inhalation study. All animal experiments were approved by the Animal Care and Use Committee of the National Institute of Environmental Research, Republic of Korea (identification code: NIER-2019-01-01-011; date of approval: 15 May 2019). The left lung of the rats was used for histopathological analysis and the right lung was used for bronchoalveolar lavage fluid (BALF) analysis, including lung cell damage and pulmonary inflammation.
The inhalation aerosols of the DGH solutions were generated using an atomizer with a clean air flow of 250 L/min. […] In the acute toxicity test, all the rats in each group were sacrificed immediately after exposure. Temperature, humidity, air flow, and air pressure were monitored during the exposure using a Model VT3-X15 environmental controller (Sibata, Saitama, Japan). The concentration of DGH was analyzed by sampling the chamber air using a SIP-32L (Sibata, Saitama, Japan) and measuring the weight of the membranes (T60A20, Φ55). The mass median aerodynamic diameter (MMAD) and geometric standard deviation (GSD) of DGH in the exposure chamber were measured using an Andersen cascade impactor (AN-200, Sibata, Saitama, Japan).
Hematology and serum biochemistry of ten rats in each group were analyzed, as described in previous studies. Briefly, blood samples of the animals were drawn from the ventral aorta using a syringe, under anesthesia. The blood samples were collected into CBC bottles containing ethylenediaminetetraacetic acid (EDTA) (K2 EDTA, BD vacutainer) and analyzed within 15 min, using an automatic hematology LC-662G, Kyoto, Japan. The following parameters were determined: white blood cell count, red blood cell count, hemoglobin, hematocrit, mean corpuscular volume, mean corpuscular hemoglobin, mean corpuscular hemoglobin concentration, red blood cell volume distribution width, platelets, mean platelet volume, […], and platelet distribution width. Blood samples were drawn from the ventral aorta using a syringe and collected in a serum vacutainer. The sera were collected by centrifugation at 2000 rpm for 10 min within 2 h after collection and stored at −80 °C in a freezer, prior to analysis. The following serum biochemistry parameters were determined using an automatic serum analyzer (Drichem4000, Fuji Photo Film, Tokyo, Japan): alkaline phosphatase, lactate dehydrogenase (LDH), glucose, total cholesterol, glutamic oxaloacetate transaminase, glutamic pyruvate transaminase, urea nitrogen in blood, calcium, inorganic phosphorus, gamma glutamyl transferase, albumin, total protein, creatinine, total bilirubin, sodium, potassium, and chlorine.

A549 cells [1] = experiment: cells; format: cell-based, Human; settings: 24 h exposure, WST assay
Method: Human adenocarcinomic alveolar epithelial (A549) cells were obtained from the Korea Cell Line Bank (Seoul, Korea). Cells were grown in RPMI 1640 medium (Thermo Fisher Scientific, Waltham, MA, USA), containing 10% heat-inactivated fetal bovine serum (Thermo Fisher Scientific, Waltham, MA, USA) and 1% penicillin-streptomycin (Thermo Fisher Scientific, Waltham, MA, USA) under standard cell culture conditions (37 °C, 5% CO2, and 90% humidity).
A549 cells (1 × 10^4 cells) were incubated in 96-well plates overnight, and various concentrations (1, 10, 100, 1000, and 5000 μg/mL) of the eight selected chemicals were added to the cell culture medium. After 24 h of incubation, cell morphology was observed by optical microscopy, and cell viability was evaluated using EZ-Cytox kit (DoGenBio, Seoul, Korea) by quantifying purple formazan crystals. The membrane integrity was examined using an EZ-lactate dehydrogenase (LDH) kit (DoGenBio, Seoul, Korea) to measure the LDH level released from the cytosol into the culture medium. Absorbance was measured using a microplate reader (Tecan, Salzburg, Austria) at a wavelength of 450 nm.

A549 cells [2] = experiment: Colony formation (clonogenic) assay; format: cell-based, Human; settings: 10 days
Method: A clonogenic assay was performed by modifying the method of Franken et al.. Briefly, the cells were incubated overnight in six-well plates, at a density of 200 cells per well. DGH (0.00313, 0.00625, 0.0125, 0.025, 0.05, 0.1, and 0.2 μg/mL) and CGP (0.313, 0.625, 1.25, 2.5, 5, 10, and 20 μg/mL) were incubated with the cells for ten days. After incubation, the medium was removed, the cells were washed with phosphate-buffered saline (PBS), fixed with methanol for 10 min on ice, and stained with crystal violet (0.5% crystal violet in 20% methanol). The number of colonies was quantified using light microscopy (Olympus Co., Tokyo, Japan).

In the case of CCCCCCCCCCCCN=C(N)N.Cl [DGH, Dodecylguanidine hydrochloride], the Spleen weight (Sprague-Dawley rats; male rats, exposed groups, 4 h) is reported as “significantly decreased; also recorded: decreased significantly”, the “Body weight vs control” value (Sprague-Dawley rats; rats, 8.6–68 mg/m^3, 4 h) is reported as “no significant changes” and the Deaths (Sprague-Dawley rats; rats, 8.6–68 mg/m^3, 4 h) is reported as “no deaths occurred; also recorded: no death”. For the same compound, the Hematology vs control (Sprague-Dawley rats; rats, 8.6–68 mg/m^3, 4 h) was “no significant changes”, the “Serum biochemistry vs control” value (Sprague-Dawley rats; rats, 8.6–68 mg/m^3, 4 h) was “no significant changes” and the “LC50 (inhalation)” value (Sprague-Dawley rats; rats, exposure for 4 h, estimated) was over 68 mg/m^3. For the same compound, the “IC50 (half inhibitory concentration by cell viability assay)” value (A549 cells [1]) was 0.39 µg/mL, the “Total number of colonies” value (A549 cells [2]; DGH 0.00313–0.2 μg/mL, CGP 0.313–20 μg/mL) was “dramatic decrease” and the “Reduction in colony formation compared to the control” value (A549 cells [2]; DGH 0.025 μg/mL) was “approximately 50%”.
